Results taken from US10815222B2, “Compounds for use in the treatment of kinetoplastid infection” (C.N.C.C.S. S.c.a.r.l. COLLEZIONE NAZIONALE DEI COMPOSTI …, priority 2016, dated 2020).
Where two headings read alike, the source gives them in different places.

Legend:
Assay type in all cases: cell-based
HeLa cells = experiment: HeLa cytotoxicity assay (CellTiter Glo, 72 h); details: Homo sapiens, read-out: Cell Proliferation Hela IC50
Experimental: (§1) HeLa cells (ATCC® CCL2™) in DMEM (Dulbecco Modified Eagle's Medium) without phenol red, Thermo, 11880, USA+10% FBS+1× PenStrep+1× Gln or HUVEC cells (ATCC® CRL1730™) in EBM-2 (Endothelial Growth Basal Medium, Lonza, CC3156)+EGM-2 SingleQuotsTMSupplements and Growth Factors (Lonza, CC4176)+1× Penicyllin-Streptomycin (PenStrep, ThermoFisher)+1× Glutamine, are plated in a 384 well plate (Thermo, 4334-11, USA) to a density of 2000 cells per well and let recover for four hours at 37° C., 5% CO2 in a humidified atmosphere. After the recovery, compounds are transferred to assay plates as per compound preparation method. Assay plates are then incubated at 37° C., 5% CO2 in a humidified atmosphere for 72 hours. Cell viability is measured by the CellTiter Glo (Promega, G8080, USA) as per manufacturer instruction.

HUVEC cells = experiment: HUVEC cytotoxicity assay (CellTiter Glo, 72 h); details: Homo sapiens, read-out: Cell Proliferation HUVEC IC50
Experimental: as §1

[1] = system: Bloodstream form of Trypanosoma brucei, strain Lister 427; experiment: Trypanosoma brucei growth inhibition assay (CellTiter-Glo, 24 h); details: Trypanosoma brucei
Summary of the method: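 Growth read-out was CellTiter-Glo luminescence after 24 h at 37 °C incubation of 1500 bloodstream-form Lister 427 trypanosomes per well with compound, in supplemented IMDM containing 10% FBS and at most 0.25% DMSO.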

[2] = T. Brucei Growth Inibition Assay, class symbols, read-out: T. Brucei GI EC50
[3] = Table 3, read-out: T. brucei GI EC50

Compound	IC50 (HeLa cells)	IC50 (HUVEC cells)	EC50 [1, 2]	EC50 [1, 3]
COc1ccc2[nH]c(C)c(CC(=O)N3CCN(C)CC3c3ncc(-c4cc5ccccc5nc4OC)[nH]3)c2c1 (stereo not shown) [2-(5-methoxy-2-methyl-1H-indol-3-yl)-1-(2-(5-(2-methoxyquinolin-3-yl)-1H-imidazol-2-yl)-4-methylpiperazin-1-yl)ethan-1-one]	≥ 25000 nM	≥ 25000 nM	100 to 500 nM	139 nM
COc1ccc2[nH]c(C)c(CC(=O)N3CCN(CC4CCOC4)CC3c3ncc(-c4cc5ccccc5nc4OC)[nH]3)c2c1 (stereo not shown) [2-(5-methoxy-2-methyl-1H-indol-3-yl)-1-(2-(5-(2-methoxyquinolin-3-yl)-1H-imidazol-2-yl)-4-((tetrahydrofuran-3-yl)methyl)piperazin-1-yl)ethan-1-one]	≥ 25000 nM	23200 nM	< 100 nM	22.9 nM
COc1ccc2[nH]c(C)c(CC(=O)N3CCN(CC4CCOC4)CC3c3ncc(-c4ccc5ccccc5c4)[nH]3)c2c1 (stereo not shown) [2-(5-methoxy-2-methyl-1H-indol-3-yl)-1-(2-(5-(naphthalen-2-yl)-1H-imidazol-2-yl)-4-((tetrahydrofuran-3-yl)methyl)piperazin-1-yl)ethan-1-one]	≥ 25000 nM	18700 nM	< 100 nM	4.72 nM
COc1ccc2[nH]c(C)c(CC(=O)N3CCN(CC4CC4)CC3c3ncc(-c4ccc5ccccc5c4)[nH]3)c2c1 (stereo not shown) [1-(4-(cyclopropylmethyl)-2-(5-(naphthalen-2-yl)-1H-imidazol-2-yl)piperazin-1-yl)-2-(5-methoxy-2-methyl-1H-indol-3-yl)ethan-1-one]	≥ 25000 nM	8060 nM	< 100 nM	17.6 nM
COc1nc2ccccc2cc1-c1cnc(C2CN(Cc3cnn(C)c3)CCN2C(=O)Cc2c(C)[nH]c3ccc(F)cc23)[nH]1 (stereo not shown) [2-(5-fluoro-2-methyl-1H-indol-3-yl)-1-(2-(5-(2-methoxyquinolin-3-yl)-1H-imidazol-2-yl)-4-((1-methyl-1H-pyrazol-4-yl)methyl)piperazin-1-yl)ethan-1-one]	17400 nM	6720 nM	100 to 500 nM	172 nM
COc1nc2ccccc2cc1-c1cnc(C2CN(Cc3nccs3)CCN2C(=O)Cc2c(C)[nH]c3ccc(F)cc23)[nH]1 (stereo not shown) [2-(5-fluoro-2-methyl-1H-indol-3-yl)-1-(2-(5-(2-methoxyquinolin-3-yl)-1H-imidazol-2-yl)-4-(thiazol-2-ylmethyl)piperazin-1-yl)ethan-1-one]	≥ 25000 nM	8200 nM	< 100 nM	60.6 nM
COc1nc2ccccc2cc1-c1cnc(C2CN(C)CCN2C(=O)Cc2c(C)[nH]c3ccc(F)cc23)[nH]1 (stereo not shown) [2-(5-fluoro-2-methyl-1H-indol-3-yl)-1-(2-(5-(2-methoxyquinolin-3-yl)-1H-imidazol-2-yl)-4-methylpiperazin-1-yl)ethan-1-one]	18100 nM	5680 nM	100 to 500 nM	122 nM
CCC(O)CCCN1CCN(C(=O)Cc2c(C)[nH]c3ccc(OC)cc23)C(c2ncc(-c3ccc4ccccc4c3)[nH]2)C1 (stereo not shown) [1-(4-(4-hydroxyhexyl)-2-(5-(naphthalen-2-yl)-1H-imidazol-2-yl)piperazin-1-yl)-2-(5-methoxy-2-methyl-1H-indol-3-yl)ethan-1-one]	13100 nM	9270 nM	< 100 nM	13 nM
CCC(=O)CCCN1CCN(C(=O)Cc2c(C)[nH]c3ccc(OC)cc23)C(c2ncc(-c3cc4ccccc4nc3OC)[nH]2)C1 (stereo not shown) [6-(4-(2-(5-methoxy-2-methyl-1H-indol-3-yl)acetyl)-3-(5-(2-methoxyquinolin-3-yl)-1H-imidazol-2-yl)piperazin-1-yl)hexan-3-one]	≥ 25000 nM	21400 nM	< 100 nM	34.2 nM
COc1nc2ccccc2cc1-c1cnc(C2CN(C3CCOCC3)CCN2C(=O)Cc2c(C)[nH]c3ccc(F)cc23)[nH]1 (stereo not shown) [2-(5-fluoro-2-methyl-1H-indol-3-yl)-1-(2-(5-(2-methoxyquinolin-3-yl)-1H-imidazol-2-yl)-4-(tetrahydro-2H-pyran-4-yl)piperazin-1-yl)ethan-1-one]	≥ 25000 nM	10600 nM	100 to 500 nM	117 nM
COc1ccc2[nH]c(C)c(CC(=O)N3CCN(C)CC3c3ncc(-c4ccc5ccccc5c4)[nH]3)c2c1 (stereo not shown) [2-(5-methoxy-2-methyl-1H-indol-3-yl)-1-(4-methyl-2-(5-(naphthalen-2-yl)-1H-imidazol-2-yl)piperazin-1-yl)ethan-1-one]	≥ 25000 nM	21800 nM	< 100 nM	39.9 nM
CCC(=O)CCCN1CCN(C(=O)Cc2c[nH]c3ncccc23)C(c2ncc(-c3ccc4ccccc4c3)[nH]2)C1 (stereo not shown)	≥ 25000 nM	≥ 25000 nM	510 to 1000 nM	545 nM
CCCCCCN1CCN(C(=O)Cc2c(C)[nH]c3ccc(OC)cc23)C(c2ncc(-c3ccc4ccccc4c3)[nH]2)C1 (stereo not shown) [1-(4-hexyl-2-(5-(naphthalen-2-yl)-1H-imidazol-2-yl)piperazin-1-yl)-2-(5-methoxy-2-methyl-1H-indol-3-yl)ethan-1-one]	≥ 25000 nM	≥ 25000 nM	< 100 nM	78.7 nM
COc1nc2ccccc2cc1-c1cnc(C2CN(CC3CCOC3)CCN2C(=O)Cn2c(C)nc3ccccc32)[nH]1 (stereo not shown) [1-(2-(5-(2-methoxyquinolin-3-yl)-1H-imidazol-2-yl)-4-((tetrahydrofuran-3-yl)methyl)piperazin-1-yl)-2-(2-methyl-1H-benzo[d]imidazol-1-yl)ethan-1-one]	20600 nM	≥ 25000 nM	100 to 500 nM	163 nM
CCC(=O)CCCN1CCN(C(=O)Cc2c(C)[nH]c3ccc(OC)cc23)C(c2nnc(-c3ccc4ccccc4c3)o2)C1 (stereo not shown) [6-(4-(2-(5-methoxy-2-methyl-1H-indol-3-yl)acetyl)-3-(5-(naphthalen-2-yl)-1,3,4-oxadiazol-2-yl)piperazin-1-yl)hexan-3-one]	≥ 25000 nM	≥ 25000 nM	100 to 500 nM	350 nM
CCC(=O)CCCN1CCN(C(=O)Cc2c(C)[nH]c3ccc(OC)cc23)C(c2ncc(-c3ccc4ccccc4c3)[nH]2)C1 (stereo not shown) [6-(4-(2-(5-methoxy-2-methyl-1H-indol-3-yl)acetyl)-3-(5-(naphthalen-2-yl)-1H-imidazol-2-yl)piperazin-1-yl)hexan-3-one]	12300 nM	≥ 25000 nM	< 100 nM	9.92 nM
COc1nc2ccccc2cc1-c1cnc(C2CN(CC3CCOC3)CCN2C(=O)Cc2c(C)[nH]c3ccc(F)cc23)[nH]1 (stereo not shown) [2-(5-fluoro-2-methyl-1H-indol-3-yl)-1-(2-(5-(2-methoxyquinolin-3-yl)-1H-imidazol-2-yl)-4-((tetrahydrofuran-3-yl)methyl)piperazin-1-yl)ethan-1-one]	18700 nM	9630 nM	< 100 nM	35.1 nM
CCC(=O)CCCN1CCN(C(=O)Cc2c[nH]c3ccccc23)C(c2ncc(-c3ccc4ccccc4c3)[nH]2)C1 (stereo not shown)	≥ 25000 nM	9970 nM	100 to 500 nM	489 nM
COc1ccc2nc(C)n(CC(=O)N3CCN(Cc4nnc(C)o4)C[C@H]3c3ncc(-c4cc5ccccc5nc4OC)[nH]3)c2c1			100 to 500 nM	
